According to US20050025795A1, “Compounds, Compositions and methods for insect control” (The Procter & Gamble Company, priority 2003, published 2005):
Where a name gives a salt, the structure may show the parent alone. Read-outs that look alike come from different tables or passages of the source. Marks after values point to notes of the source that are not given here.

Key:
roaches = type: in vivo, cockroaches
Procedure: An ˜500 mL jar is coated at the top with a thin film of petroleum jelly and covered with a plastic petri dish as a lid. […] The filter paper is bent in half to form a ‘tent’, as shown, so the roaches are not forced to contact the filter paper. The lid is removed, and a compound or composition to be tested is added to the top of the paper, at the bend. The lid is replaced and the insects monitored for activity at 15, 30, 45 minutes, then 1, 2, 4 and 24 hours post exposure.
This is done by taking multiple testes and plotting them on a dose-response curve such as the GraphPad® Prism® computer program. This program interpolates to find the midpoint of any sigmoidal dose-response curve.
The data in Table 1 can graphed as a sigmoidal dose response, much the same as any other biological data. […] The mid-Point of the dose-response curve is given by the computer and used to compare potencies. […] It is also necessary to understand the range of the testing. While the lower limit is in the 1 to 3 microliter range, the upper limit is about 250 microliters. Adding more material than that to the filter paper will allow the substance to drip onto the glass, where contact with the insects might occur. […] Several compounds are tested in a 2 liter (L) jar rather than the 0.5 L jars which are the primary assay.

[1] = tested on: insects of the blattella species; assay: Direct contact spray knockdown; type: in vivo
Text: A formula is created consisting exclusively of ethylene glycol diformate. This diformate is placed in aerosol cans and pressurized with carbon dioxide as propellant. This material, when sprayed on insects of the blattella species, results in knockdown in under 30 seconds. When administered in the vapor phase according to Example 1, in a 500 milliliter jar, 15 microliters of the formula in the vapor phase kills all the insects in one hour.
Raid (#271) Roach and Ant Killer and Treatment is purchased and repeatedly tested in the assay of Example 1, and in a direct contact test. It did knowndown both the peripleneta species (17.2+/−3.2 seconds) and the blattella species (kill time 16 seconds) when directly sprayed on the insects.

[2] = 5 µL, ~500 mL jar, 6 insects in this jar

Molecule: Cc1coc2c1CC[C@@H](C)C2 [(+)-Menthofuran, (+) menthofuran]
- LD50 (vapor phase) in a 2 L jar (roaches; 2 L jar): 15 microliters per 2 L headspace
- Percent Dead Only at 4 hours (roaches; [2]): 33%*
- Percent Dead at 24 hours (roaches; [2]): 33%*
- Percent Distressed or Dead at 4 hours (roaches; [2]): 33%*
- Percent Dead Only at 4 hours (roaches; 10 µL (repeat), ~500 mL jar): 40%
- Percent Dead at 24 hours (roaches; 10 µL (repeat), ~500 mL jar): 40%
- Percent Distressed or Dead at 4 hours (roaches; 10 µL (repeat), ~500 mL jar): 40%
- Percent Dead Only at 4 hours (roaches; 10 µL, ~500 mL jar): 100%
- Percent Dead at 24 hours (roaches; 10 µL, ~500 mL jar): 80%
- Percent Distressed or Dead at 4 hours (roaches; 10 µL, ~500 mL jar): 100%
- Percent Dead Only at 4 hours (roaches; 15 µL, ~500 mL jar): 100%
- Percent Dead at 24 hours (roaches; 15 µL, ~500 mL jar): 100%
- Percent Distressed or Dead at 4 hours (roaches; 15 µL, ~500 mL jar): 100%
- Percent Dead Only at 4 hours (roaches; 20 µL, ~500 mL jar): 100%
- Percent Dead at 24 hours (roaches; 20 µL, ~500 mL jar): 100%
- Percent Distressed or Dead at 4 hours (roaches; 20 µL, ~500 mL jar): 100%
- Percent Dead Only at 4 hours (roaches; 33 µL, ~500 mL jar): 100%
- Percent Dead at 24 hours (roaches; 33 µL, ~500 mL jar): 100%
- Percent Distressed or Dead at 4 hours (roaches; 33 µL, ~500 mL jar): 100%
- LD50 (vapor phase) (roaches; ~500 mL jar): 7.2 microliters/500 milliliters headspace

Molecule: CC(C)(C)OC=O [compound 2-1, tert-butyl formate]
- 24 hr LD50 (vapor phase) (roaches; ~500 mL jar): 40 microliters per 500 milliliters headspace

Molecule: O=COC1CCCC1 [compound 2-2, cyclopentyl formate]
- 24 hr LD50 (vapor phase) (roaches; ~500 mL jar): 17 microliters per 500 milliliters headspace

Molecule: O=COCCOC=O [ethylene glycol diformate]
- Insects killed in the vapor phase (roaches; 15 microliters of the formula, 500 milliliter jar, one hour): all
- LD50 (vapor phase) (roaches; in a 500 milliliter jar): approximately 7.5 microliters
- Relative potency within the diformate ester series (in words) (roaches; in vivo): most potent compound of the series
- Knockdown time when sprayed on insects [1]: under 30 seconds

Molecule: C=CCc1ccc(O)c(OC)c1 [eugenol, reference compound]
- LD50 (vapor phase) (roaches; ~500 mL jar): > 300 milligrams/500 milliliters

Molecule: (R) (−) carvone
- Fraction of the roaches that die in 24 hrs (roaches; individually tested at 29 milligrams/500 milliliters, 24 hrs): ⅕
